# Experiments:
# Assay type in all cases: cell-based, human
# [1] = test system: A-2058 melanoma cell line; experiment: DIMSCAN cytotoxicity, fenretinide + L-threo-sphinganines 3:1 (Example B11); settings: 96 h
# Protocol: (§1) Cytotoxicity Assay—Once again, cytotoxicity is determined using the DIMSCAN assay system (R. Proffitt et al., Cytometry 24, 204-213 (1996); T. Frgala et al., Mol Cancer Ther. 6:886-97, 2007). The system employs digital imaging microscopy to quantify viable cells, which selectively accumulate fluorescein diacetate to become brightly fluorescent. The system is capable of measuring cytotoxicity over a 4-5 log dynamic range by quenching the residual fluorescence of dead and dying cells with eosin Y and quantifying the total fluorescence of viable cells using digital thresholding. Measured fluorescence is directly proportionate to the number of viable cells. A comparison of the total fluorescence of a drug-treated cell population to the fluorescence of a similar number of untreated cells yields a survival fraction. In brief, 2000 to 10,000 cells/well (depending on size and growth rates) are replicate plated into 60 wells of a 96-well tissue culture plate in 0.1 mL of whole medium and allowed to attach overnight. Drug(s) are then added in 0.05 mL of whole medium to the final concentrations indicated. Drugs (fenretinide, and various chain length L-threo-sphinganines) were tested both as single agents and in a 3:1 ratio of fenretinide:sphinganine. C18-L-threo-sphinganine, or “safingol,” was also tested and results shown for reference. There are 12 wells treated per drug concentration. Twelve wells receive drug vehicle-only to the appropriate final concentration and serve as controls for the plate. Cells are incubated for 96 hours at 37° C. in ambient air with 5% CO2. Fluorescein diacetate is then added to each well in 0.05 mL media to a final concentration of 8 microgram/mL. Cells are incubated for a further 15 minutes at 37° C. and 0.03 mL of 0.5% eosin Y is added to each well. Total fluorescence of viable cells is then measured by digital imaging microscopy. Results were graphed as the ratio of the fluoresecence of drug-treated wells to non-drug treated control wells (i.e., Survival Fraction). All tests were performed at least twice. Representative results are shown.
# (§2) The Combination Index (CI) is a term to describe mathematical modeling of the pharmacologic effects on cytotoxicity (cell death) of two drugs in combination based. Cytotoxic “synergy” is defined as a cell death affect which is greater than would be expected from a simple product of the single agent cytotoxicities alone (i.e. an “additive” effect). By Chou-Talalay analysis, a CI<0.9 on a Fraction Affected (“Fa”, i.e. fraction of cells killed) indicates synergy, with smaller numbers indicating greater synergy; a CI of 0.9-1.1 signifies an additive or near-additive effect; and a CI>1.1 means the drug combination is antagonistic.
# Fenretinide and L-threo-sphinganines tested in human melanoma (skin cancer) cell line, A-2058.
# [2] = test system: PANC-1 pancreatic adenocarcinoma cell line; experiment: DIMSCAN cytotoxicity, fenretinide + L-threo-sphinganines 3:1 (Example B18)
# Protocol: as §1, §2
# Fenretinide and L-threo-sphinganines tested in human pancreatic adenocarcinoma (pancreas cancer) cell line, PANC-1.
# [3] = test system: U-118 Glioblastoma cell line; experiment: DIMSCAN cytotoxicity, fenretinide + L-threo-sphinganines 3:1 (Example B5); set-up: key to CI (Combination Index): CI<0.9 synergy, 0.9-1.1 additive, >1.1 antagonistic; settings: U-118 MG, 96 h
# Protocol: as §1, §2
# Fenretinide and L-threo-sphinganines tested in human Glioblastoma (brain cancer) cell line, U-118.
# [4] = test system: SJ-GBM2 Glioblastoma multiforme cell line; experiment: DIMSCAN cytotoxicity, fenretinide + L-threo-sphinganines 3:1 (Example B7); set-up: key to CI (Combination Index): Chou-Talalay CI: <0.9 synergy, 0.9-1.1 additive, >1.1 antagonism; settings: 96 h
# Protocol: as §1, §2
# Fenretinide and L-threo-sphinganines tested in human Glioblastoma multiforme (brain cancer) cell line, SJ-GBM2.
# [5] = test system: U-266 Multiple Myeloma cell line; experiment: DIMSCAN cytotoxicity, fenretinide + L-threo-sphinganines 3:1 (Example B3); settings: 96 h
# Protocol: as §1, §2
# Fenretinide and L-threo-sphinganines tested in human Multiple Myeloma (a cancer of the blood and bone marrow) cell line, U-266.
# [6] = test system: RPMI-8226 Multiple Myeloma cell line; experiment: DIMSCAN cytotoxicity, fenretinide + L-threo-sphinganines 3:1 (Example B2); settings: 96 h
# Protocol: as §1, §2
# Fenretinide and L-threo-sphinganines tested in human Multiple Myeloma (a cancer of the blood and bone marrow) cell line, RPMI-8226.
# [7] = test system: A-549 lung adenocarcinoma cell line; experiment: DIMSCAN cytotoxicity, fenretinide + L-threo-sphinganines 3:1 (Example B13); settings: 96 h
# Protocol: as §1, §2
# Fenretinide and L-threo-sphinganines tested in human lung adenocarcinoma (lung cancer) cell line, A-549.
# [8] = test system: PC-3 prostate adenocarcinoma cell line; experiment: DIMSCAN cytotoxicity, fenretinide + L-threo-sphinganines 3:1 (Example B17)
# Protocol: as §1, §2
# Fenretinide and L-threo-sphinganines tested in human prostate adenocarcinoma (prostate cancer) cell line, PC-3.
# [9] = 4-HPR 1.5 μM + L-threo-sphinganine 0.5 μM
# [10] = 4-HPR 3 μM + L-threo-sphinganine 1 μM
# [11] = 4-HPR 6 μM + L-threo-sphinganine 2 μM
# [12] = 4-HPR 9 μM + L-threo-sphinganine 3 μM
smiles,measurement,setting,value
"CCCCCCCCCCCCCCCCC[C@H](O)[C@@H](N)CO [C20, (2S,3S)-2-amino-1,3-icosanediol]",CI (Combination Index),[1]; [9],0.7
same,Fa (fraction affected),[1]; [9],0.311
same,CI (Combination Index),[1]; [10],1.0
same,Fa (fraction affected),[1]; [10],0.742
same,CI (Combination Index),[1]; [11],1.7
same,Fa (fraction affected),[1]; [11],0.870
same,CI (Combination Index),[1]; [12],0.5
same,Fa (fraction affected),[1]; [12],1.000
same,CI,[2]; [9],1.9
same,Fa,[2]; [9],0.136
same,CI,[2]; [10],1.9
same,Fa,[2]; [10],0.291
same,CI,[2]; [11],1.2
same,Fa,[2]; [11],0.653
same,CI,[2]; [12],0.1
same,Fa,[2]; [12],0.990
same,CI (Combination Index),[3]; [9],1.8
same,Fa (fraction affected),[3]; [9],0.645
same,CI (Combination Index),[3]; [10],0.5
same,Fa (fraction affected),[3]; [10],0.984
same,CI (Combination Index),[3]; [11],0.3
same,Fa (fraction affected),[3]; [11],0.998
same,CI (Combination Index),[3]; [12],0.3
same,Fa (fraction affected),[3]; [12],0.999
same,CI (Combination Index),[4]; [9],0.5
same,Fa (fraction affected),[4]; [9],0.055
same,CI (Combination Index),[4]; [10],0.6
same,Fa (fraction affected),[4]; [10],0.737
same,CI (Combination Index),[4]; [11],0.7
same,Fa (fraction affected),[4]; [11],0.998
same,CI (Combination Index),[4]; [12],0.3
same,Fa (fraction affected),[4]; [12],1.000
same,CI (Combination Index),[5]; [9],1.2
same,Fa (fraction affected),[5]; [9],0.259
same,CI (Combination Index),[5]; [10],1.3
same,Fa (fraction affected),[5]; [10],0.688
same,CI (Combination Index),[5]; [11],0.4
same,Fa (fraction affected),[5]; [11],0.999
same,CI (Combination Index),[5]; [12],>0.1
same,Fa (fraction affected),[5]; [12],1.000
same,CI (Combination Index),[6]; [9],1.0
same,Fa (fraction affected),[6]; [9],0.583
same,CI (Combination Index),[6]; [10],1.1
same,Fa (fraction affected),[6]; [10],0.867
same,CI (Combination Index),[6]; [11],0.9
same,Fa (fraction affected),[6]; [11],0.996
same,CI (Combination Index),[6]; [12],0.3
same,Fa (fraction affected),[6]; [12],1
same,CI (Combination Index),[7]; [9],2.1
same,Fa (fraction affected),[7]; [9],0.000
same,CI (Combination Index),[7]; [10],4.1
same,Fa (fraction affected),[7]; [10],0.000
same,CI (Combination Index),[7]; [11],1.1
same,Fa (fraction affected),[7]; [11],0.017
same,CI (Combination Index),[7]; [12],1.1
same,Fa (fraction affected),[7]; [12],0.499
same,CI,[8]; [9],1.0
same,Fa,[8]; [9],0.217
same,CI,[8]; [10],1.1
same,Fa,[8]; [10],0.393
same,CI,[8]; [11],1.2
same,Fa,[8]; [11],0.620
same,CI,[8]; [12],0.5
same,Fa,[8]; [12],0.916
CCCCCCCCCCCCCCCCCC[C@H](O)[C@@H](N)CO [C21],CI (Combination Index),[1]; [9],0.7
same,Fa (fraction affected),[1]; [9],0.016
same,CI (Combination Index),[1]; [10],1.4
same,Fa (fraction affected),[1]; [10],0.016
same,CI (Combination Index),[1]; [11],1.9
same,Fa (fraction affected),[1]; [11],0.333
same,CI (Combination Index),[1]; [12],1.9
same,Fa (fraction affected),[1]; [12],0.955
same,CI,[2]; [9],2.5
same,Fa,[2]; [9],0.111
same,CI,[2]; [10],2.9
same,Fa,[2]; [10],0.239
same,CI,[2]; [11],1.6
same,Fa,[2]; [11],0.784
same,CI,[2]; [12],0.4
same,Fa,[2]; [12],0.994
same,CI (Combination Index),[3]; [9],1.3
same,Fa (fraction affected),[3]; [9],0.588
same,CI (Combination Index),[3]; [10],1.5
same,Fa (fraction affected),[3]; [10],0.836
same,CI (Combination Index),[3]; [11],0.6
same,Fa (fraction affected),[3]; [11],0.995
same,CI (Combination Index),[3]; [12],0.5
same,Fa (fraction affected),[3]; [12],0.999
same,CI (Combination Index),[4]; [9],1.4
same,Fa (fraction affected),[4]; [9],0.131
same,CI (Combination Index),[4]; [10],1.9
same,Fa (fraction affected),[4]; [10],0.470
same,CI (Combination Index),[4]; [11],2.1
same,Fa (fraction affected),[4]; [11],0.946
same,CI (Combination Index),[4]; [12],2.0
same,Fa (fraction affected),[4]; [12],0.996
same,CI (Combination Index),[5]; [9],1.4
same,Fa (fraction affected),[5]; [9],0.225
same,CI (Combination Index),[5]; [10],1.5
same,Fa (fraction affected),[5]; [10],0.658
same,CI (Combination Index),[5]; [11],0.6
same,Fa (fraction affected),[5]; [11],0.996
same,CI (Combination Index),[5]; [12],>0.1
same,Fa (fraction affected),[5]; [12],1
same,CI (Combination Index),[6]; [9],1.2
same,Fa (fraction affected),[6]; [9],0.517
same,CI (Combination Index),[6]; [10],1.6
same,Fa (fraction affected),[6]; [10],0.722
same,CI (Combination Index),[6]; [11],1.6
same,Fa (fraction affected),[6]; [11],0.955
same,CI (Combination Index),[6]; [12],1.1
same,Fa (fraction affected),[6]; [12],0.999
same,CI (Combination Index),[7]; [9],0.9
same,Fa (fraction affected),[7]; [9],0.078
same,CI (Combination Index),[7]; [10],2.6
same,Fa (fraction affected),[7]; [10],0.044
same,CI (Combination Index),[7]; [11],0.8
same,Fa (fraction affected),[7]; [11],0.51
same,CI (Combination Index),[7]; [12],0.4
same,Fa (fraction affected),[7]; [12],0.972
same,CI,[8]; [9],1.7
same,Fa,[8]; [9],0.215
same,CI,[8]; [10],1.4
same,Fa,[8]; [10],0.350
same,CI,[8]; [11],1.6
same,Fa,[8]; [11],0.479
same,CI,[8]; [12],0.9
same,Fa,[8]; [12],0.738
